{"source": "patent US10613091B2", "about": "“Methods of developing a prognosis for pancreatic cancer and predicting responsiveness to cancer therapeutics” (DUKE UNIVERSITY, priority 2011, dated 2020)", "test_system": "pancreatic adenocarcinoma", "test": "Overall survival (OS) by baseline plasma analytes, CALGB 80303 gemcitabine +/- bevacizumab", "type": "in vivo, human", "excerpt": "Eligibility of patients evaluated in this correlative analysis was described previously (Kindler et al., J Clin Oncol 2010 28(22):3617-3622). Briefly, eligible patients had histologically- or cytologically-confirmed pancreatic adenocarcinoma not amenable to curative surgery. Measurable disease was not required. Prior chemotherapy for metastatic disease was not permitted. […] Prior radiation was allowed if it was completed at least 4 weeks prior to enrollment and there was disease outside the radiation port. Patients were required to be at least 18 years of age and have a life expectancy of at least 12 weeks. Written informed consent was obtained from all patients participating in this correlative analysis.\nGemcitabine (1,000 mg/m^2) was administered intravenously over 30 minutes on days 1, 8, and 15 of a 28-day cycle. […]\nPatterns of expression were analyzed at baseline and were correlated with overall survival (OS) and progression free survival (PFS) using univariate Cox proportional hazard regression models and multivariate Cox models with leave-one-out cross validation. Spearman's rank correlation coefficients were calculated for all pairs of analytes. […]\nThe primary endpoint of interest will be overall survival (OS) with correlation to the blood analytes; however, progression-free survival (PFS) was evaluated. […]", "data": [{"substance": "bevacizumab: monoclonal antibody against VEGF", "values": [{"measurement": "benefit from bevacizumab (overall survival)", "setting": "VEGF-D above Q1, more than 1092.35 pg/mL, p=0.035", "value": "predicted for lack of benefit"}, {"measurement": "benefit from bevacizumab (overall survival)", "setting": "VEGF-D below Q1, less than 1092.35 pg/mL, p=0.033", "value": "predicted for benefit"}]}]}
